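Cultured in 96-well plates, cells were exposed to test compound for 48 hours across five concentrations. At the TGI there is no net growth.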 Where a SMILES comes first, the peptide text is derived from it. [ ]: non-standard residue; d: D form. The star is where a group is joined. Bn2Val = CC(C)[C@@H](C(=O)*)N(Cc1ccccc1)Cc1ccccc1; NH(4-Cl-benzyl) = Clc1ccc(CN*)cc1; NMeV = CN[C@H](C(=O)O)C(C)C; dNMeA = CN[C@H](C)C(=O)O

Holding throughout (assay): NCI-60 cell line screen, 48 h
Assay [1] deals with HL-60(TB) leukemia.
Assay [2] relates to CAKI-1 renal.
For assay [3], the system named is SF-268 CNS.
Assay [4] concerns NCI-H226 lung.
Assay [5] deals with EKVX NSCLC.
The subject of assay [6] is OVCAR-5 ovarian.
Assay [7] has as its system OVCAR-8 ovarian.
Assay [8] has as its system SK-MEL-5 melanoma.
Assay [9] has as its system NCI-H522 lung.
Assay [10] deals with LOX IMVI melanoma.

For `O=C(c1cccs1)N1CCN(C(=O)c2cccs2)C1=S`, the TGI came out at 5.2 µM in assay [1]; 15.3 µM in [2]; 20 µM in [3]; 34.7 µM in [4]; 27.8 µM in assay [5]; 30.3 µM in assay [6]. In addition, the TGI amounted to 21.4 µM in [7], 18.2 µM in assay [8], 35.8 µM in assay [9] and 10.8 µM in [10].
With `O=C1c2c(O)cccc2-c2nn(CCNCCO)c3ccc(NCCNCCO)c1c23`, the TGI in assay [1] was determined as 0.123 µM; in [2], 1.81 µM; in assay [3] it was 1.17 µM; in assay [4], 0.0964 µM; in assay [5], 4.8 µM; in assay [6] it was 2.85 µM. For the same compound, the TGI in [7] stood at 4.24 µM; in [8], 1.13 µM; in [9], 0.164 µM; in assay [10], 1.68 µM.
Consider `CN=C(/N=c1\ssc(=NC)n1C)N(C)C`, for which the TGI in assay [1], in assay [2], in assay [3], in assay [4], in assay [5] and in assay [6] was more than 100 µM throughout. Further, the TGI in assay [7], in [8], in [9] and in [10] was more than 100 µM in each case.
`CC(C)[C@H](NC(=O)[C@H](C(C)C)N(Cc1ccccc1)Cc1ccccc1)C(=O)N(C)[C@H](C(=O)N1CCC[C@H]1C(=O)N(C)[C@H](C)C(=O)NCc1ccc(Cl)cc1)C(C)C` (Bn2Val-V[NMeV]P[dNMeA]-{NH(4-Cl-benzyl)}): the TGI in assay [1] was 3.97 µM; in assay [2], more than 100 µM; in [3] it was 11.2 µM; in assay [4] it was 9.66 µM; in [5] it was 34 µM; in [6] it was more than 100 µM. Also, the TGI in [7] is more than 100 µM; in assay [8] it was 13.4 µM; in assay [9], 4.97 µM; in assay [10], 3.63 µM.
With `Cc1cc(C)c2c(c1)C(=O)/C(=C/c1ccccc1C(=O)O)C2`, the TGI in assay [1], in [2], in assay [3], in [4], in assay [5] and in assay [7] was more than 100 µM each time. For the same compound, the TGI in [8], in [9] and in [10] was more than 100 µM in each case.
For `COc1cc(C2c3cc4c(cc3C3OC[C@@H]2C3CO)OCO4)cc(OC)c1OC` (stereo partly specified), the TGI is 18.7 µM in assay [1]; more than 100 µM in [2]; more than 100 µM in assay [3]; 47 µM in assay [4]; more than 100 µM in [5]; more than 100 µM in assay [6]. In addition, the TGI was more than 100 µM in [7], 27.9 µM in assay [8], 47.8 µM in assay [9] and more than 100 µM in assay [10].
As for `CC(C)(C)CC(C)(C)c1cc(O)c(O)c(CN2CCCCC2)c1`, the TGI in assay [1] stood at 31.6 µM; in assay [2] it was 27.9 µM; in [3] it was 25.3 µM; in assay [4], 32 µM; in assay [5] it was 26.4 µM; in assay [6], 31.8 µM. Moreover, the TGI stood at 33.1 µM in [7], 28.9 µM in assay [8], 23.5 µM in [9] and 24.3 µM in [10].
Take `COc1cccc(N[C@@H]2c3cc4c(cc3C(c3cc(OC)c(O)c(OC)c3)[C@H]3C(=O)OCC32)OCO4)c1` (stereo partly specified): the TGI in assay [1] was 0.487 µM; in assay [2] it was 2.12 µM; in assay [3], 12.8 µM; in [4], 2.05 µM; in assay [5] it was 14.9 µM; in assay [6] it was more than 74.2 µM. In addition, the TGI in [7] is more than 23.1 µM; in assay [8], 3.04 µM; in assay [9], 8.02 µM; in assay [10], 10.3 µM.
Turning to `CCc1cc2c(c3c1CCCC3=O)CC1(Cc3ccc(C(=O)OC)cc3C1)C2` (stereo unspecified), the TGI in assay [1] is 55.4 µM; in assay [2], more than 100 µM; in [3] it was more than 100 µM; in assay [4], more than 100 µM; in [5], more than 100 µM; in assay [6], more than 100 µM. The TGI in [7] was more than 100 µM; in assay [8] it was 30.1 µM; in assay [9], more than 100 µM; in assay [10], more than 100 µM.
Turning to `Cc1ccc(S(=O)(=O)Nn2c(O)c(C#N)c(-c3ccc(Cl)cc3)c(C#N)c2=O)cc1`, the TGI in assay [1], in assay [2], in assay [3], in [4], in assay [5] and in [6] was more than 100 µM in each case. The TGI in [7], in assay [8], in assay [9] and in assay [10] was more than 100 µM throughout.
For `C=CCOn1c(C=C)nc2ccc(C)cc21`, the TGI amounted to 22.2 µM in assay [1]; 49.3 µM in [2]; 80.2 µM in [3]; 37.5 µM in assay [4]; 37.8 µM in assay [5]; 41.7 µM in [6]. Besides, the TGI in [7] was more than 100 µM; in [8], 31.4 µM; in assay [9] it was 32.9 µM; in [10], 37.5 µM.
With `CN1C(=O)C(O)C[C@@H]1c1ccccc1` (stereo partly specified), the TGI in [1], in assay [2], in [3], in assay [4], in assay [5] and in assay [6] was more than 100 µM each time. The TGI in [7], in assay [8], in assay [9] and in assay [10] was more than 100 µM throughout.
As for `CC(=O)Nc1ccc(OC/C(N)=N/NC(=O)c2ccncc2)cc1`, the TGI in [1], in assay [2], in assay [3], in assay [5], in [6] and in assay [7] was more than 100 µM each time. In addition, the TGI in assay [9] and in assay [10] was more than 100 µM throughout.
`CCCSc1ccc2[nH]c(N3C(=O)/C(=C/c4ccccc4)N=C3c3ccccc3)cc2c1`: the TGI in assay [1] is 30.2 µM; in [2], more than 50 µM; in assay [3], more than 50 µM; in assay [5], more than 50 µM; in assay [6], more than 50 µM; in assay [7] it was more than 50 µM. Besides, the TGI in [8] is 44.4 µM; in [9], 36 µM; in assay [10], more than 50 µM.

For the origin of these results see PubChem BioAssay (NCI).
